{
  "source": "patent US20170037028A1",
  "about": "(BAYER PHARMA AKTIENGESELLSCHAFT, priority 2013, published 2017)",
  "molecular_target": "T1, GLUT1 (Homo sapiens, UniProt P11166)",
  "T1 sequence (P11166 1-492)": "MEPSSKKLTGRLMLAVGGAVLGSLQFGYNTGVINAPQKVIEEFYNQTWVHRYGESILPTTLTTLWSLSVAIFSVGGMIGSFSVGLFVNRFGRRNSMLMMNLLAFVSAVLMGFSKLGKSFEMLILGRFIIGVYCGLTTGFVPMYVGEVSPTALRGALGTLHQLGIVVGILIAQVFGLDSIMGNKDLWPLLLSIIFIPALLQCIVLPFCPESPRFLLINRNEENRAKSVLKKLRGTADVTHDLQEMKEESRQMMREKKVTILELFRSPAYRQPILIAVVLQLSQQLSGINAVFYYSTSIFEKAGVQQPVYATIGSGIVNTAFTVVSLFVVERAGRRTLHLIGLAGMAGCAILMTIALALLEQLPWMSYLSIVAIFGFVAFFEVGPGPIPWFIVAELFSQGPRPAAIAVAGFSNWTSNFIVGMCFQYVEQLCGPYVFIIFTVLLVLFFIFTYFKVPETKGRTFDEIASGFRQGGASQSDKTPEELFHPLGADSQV",
  "experiment": "Indirect measurement of GLUT1 activity by quantification of intracellular ATP levels (glucose induced ATP increase)",
  "type": "cell-based",
  "set-up": "endogenous in cells; host or cells: DLD1 or CHO-K1",
  "settings": "read-out: IC50 regarding glucose induced ATP increase (GLUT1 inhibition)",
  "method_in_brief": "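DLD1 or CHO-K1 cells were starved overnight in glucose-free medium with 1% FCS, then combined with an oxidative phosphorylation inhibitor. GLUT1 activity was read as glucose-induced ATP increase, GLUT2 as fructose-induced. Intracellular ATP was quantified by CellTiter-Glo luminescence.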",
  "note": "Read-outs that look alike come from different tables or passages of the source.",
  "data": [
    {"smiles": "Cc1c(NC(=O)c2cc(C(N)=O)nc3cc(F)c(Cl)cc23)c(C(F)(F)F)nn1Cc1ccncc1C#N", "note": "[Example 287, 6-chloro-N^4-{1-[(3-cyanopyridin-4-yl)methyl]-5-methyl-3-(trifluoromethyl)-1H-pyrazol-4-yl}-7-fluoroquinoline-2,4-dicarboxamide]", "values": [
      {"measurement": "IC50", "value": 4.8, "unit": "nM"}
    ]},
    {"smiles": "Cc1c(NC(=O)c2cc(C(N)=O)nc3ccccc23)c(C(F)(F)F)nn1Cc1ccncc1C#N", "note": "[Example 288, N^4-{1-[(3-cyanopyridin-4-yl)methyl]-5-methyl-3-(trifluoromethyl)-1H-pyrazol-4-yl}quinoline-2,4-dicarboxamide]", "values": [
      {"measurement": "IC50", "value": 40.1, "unit": "nM"}
    ]},
    {"smiles": "Cc1c(NC(=O)c2cc(C(N)=O)nc3ccccc23)c(C(F)(F)F)nn1Cc1ccc(C#N)nc1", "note": "[Example 289, N^4-{1-[(6-cyanopyridin-3-yl)methyl]-5-methyl-3-(trifluoromethyl)-1H-pyrazol-4-yl}quinoline-2,4-dicarboxamide]", "values": [
      {"measurement": "IC50", "value": 21.5, "unit": "nM"}
    ]},
    {"smiles": "Cc1c(NC(=O)c2cc(C(N)=O)nc3cc(F)ccc23)c(C(F)(F)F)nn1Cc1ccc(C#N)nc1", "note": "[Example 290, N^4-{1-[(6-cyanopyridin-3-yl)methyl]-5-methyl-3-(trifluoromethyl)-1H-pyrazol-4-yl}-7-fluoroquinoline-2,4-dicarboxamide]", "values": [
      {"measurement": "IC50", "setting": "DLD1 cells, 0.1 mM glucose, 1 μM Rotenone, 15 min, CellTiter-Glo ATP readout, IC50 values standardized to cytochalasin B IC50 values", "value": 31.7, "unit": "nM"}
    ]},
    {"smiles": "Cc1c(NC(=O)c2cc(C(N)=O)nc3cccc(F)c23)c(C(F)(F)F)nn1Cc1ccc(C#N)nc1", "note": "[Example 291, N^4-{1-[(6-cyanopyridin-3-yl)methyl]-5-methyl-3-(trifluoromethyl)-1H-pyrazol-4-yl}-5-fluoroquinoline-2,4-dicarboxamide]", "values": [
      {"measurement": "IC50", "value": 6.9, "unit": "nM"}
    ]},
    {"smiles": "Cc1nn(Cc2ccc(C#N)nc2)c(C)c1NC(=O)c1cc(C(N)=O)nc2cc(F)ccc12", "note": "[Example 292, N^4-{1-[(6-cyanopyridin-3-yl)methyl]-3,5-dimethyl-1H-pyrazol-4-yl}-7-fluoroquinoline-2,4-dicarboxamide]", "values": [
      {"measurement": "IC50", "value": 17, "unit": "nM"}
    ]},
    {"smiles": "Cc1nn(Cc2ccc(C#N)nc2)c(C)c1NC(=O)c1cc(C(N)=O)nc2ccc(Br)cc12", "note": "[Example 293, 6-bromo-N^4-{1-[(6-cyanopyridin-3-yl)methyl]-3,5-dimethyl-1H-pyrazol-4-yl}quinoline-2,4-dicarboxamide]", "values": [
      {"measurement": "IC50", "value": 1, "unit": "nM"}
    ]},
    {"smiles": "Cc1nn(CCOc2ccc(C#N)cc2)c(C)c1NC(=O)c1cc(C(N)=O)nc2cc(F)c(Cl)cc12", "note": "[Example 294, 6-chloro-N^4-{1-[2-(4-cyanophenoxy)ethyl]-3,5-dimethyl-1H-pyrazol-4-yl}-7-fluoroquinoline-2,4-dicarboxamide]", "values": [
      {"measurement": "IC50", "value": 6.6, "unit": "nM"}
    ]},
    {"smiles": "Cc1nn(CCOc2ccc(C#N)cc2)c(C)c1NC(=O)c1cc(C(N)=O)nc2ccccc12", "note": "[Example 295, N^4-{1-[2-(4-cyanophenoxy)ethyl]-3,5-dimethyl-1H-pyrazol-4-yl}quinoline-2,4-dicarboxamide]", "values": [
      {"measurement": "IC50", "value": 1020, "unit": "nM"}
    ]},
    {"smiles": "Cc1nn(Cc2ccc(C#N)cc2F)c(C)c1NC(=O)c1cc(C(N)=O)nc2cc(F)c(Cl)cc12", "note": "[Example 296, 6-chloro-N^4-[1-(4-cyano-2-fluorobenzyl)-3,5-dimethyl-1H-pyrazol-4-yl]-7-fluoroquinoline-2,4-dicarboxamide]", "values": [
      {"measurement": "IC50", "value": 0.6, "unit": "nM"}
    ]},
    {"smiles": "Cc1nn(Cc2ccc(C#N)cc2F)c(C)c1NC(=O)c1cc(C(N)=O)nc2ccccc12", "note": "[Example 297, N^4-[1-(4-cyano-2-fluorobenzyl)-3,5-dimethyl-1H-pyrazol-4-yl]quinoline-2,4-dicarboxamide]", "values": [
      {"measurement": "IC50", "value": 0.8, "unit": "nM"}
    ]},
    {"smiles": "Cc1nn(Cc2ccc(C#N)cc2F)c(C)c1NC(=O)c1cc(C(N)=O)nc2cc(F)c(F)cc12", "note": "[Example 298, N^4-[1-(4-cyano-2-fluorobenzyl)-3,5-dimethyl-1H-pyrazol-4-yl]-6,7-difluoroquinoline-2,4-dicarboxamide]", "values": [
      {"measurement": "IC50", "value": 1, "unit": "nM"}
    ]},
    {"smiles": "Cc1nn(Cc2ccc(C#N)cc2F)c(C)c1NC(=O)c1cc(C(N)=O)nc2ccc(Br)cc12", "note": "[Example 299, 6-bromo-N^4-[1-(4-cyano-2-fluorobenzyl)-3,5-dimethyl-1H-pyrazol-4-yl]quinoline-2,4-dicarboxamide]", "values": [
      {"measurement": "IC50", "value": 6.8, "unit": "nM"}
    ]},
    {"smiles": "Cc1nn(Cc2ccc(C#N)cc2F)c(C)c1NC(=O)c1cc(C(N)=O)nc2cc(F)ccc12", "note": "[Example 300, N^4-[1-(4-cyano-2-fluorobenzyl)-3,5-dimethyl-1H-pyrazol-4-yl]-7-fluoroquinoline-2,4-dicarboxamide]", "values": [
      {"measurement": "IC50", "value": 0.5, "unit": "nM"}
    ]},
    {"smiles": "Cc1nn(Cc2ccc(C#N)cc2F)c(C)c1NC(=O)c1cc(C(N)=O)nc2cccc(F)c12", "note": "[Example 301, N^4-[1-(4-cyano-2-fluorobenzyl)-3,5-dimethyl-1H-pyrazol-4-yl]-5-fluoroquinoline-2,4-dicarboxamide]", "values": [
      {"measurement": "IC50", "value": 0.5, "unit": "nM"}
    ]},
    {"smiles": "Cc1c(NC(=O)c2cc(C(N)=O)nc3ccccc23)c(C(F)(F)F)nn1Cc1ccc(C#N)cc1F", "note": "[Example 302, N^4-[1-(4-cyano-2-fluorobenzyl)-5-methyl-3-(trifluoromethyl)-1H-pyrazol-4-yl]quinoline-2,4-dicarboxamide]", "values": [
      {"measurement": "IC50", "value": 1.1, "unit": "nM"}
    ]},
    {"smiles": "Cc1c(NC(=O)c2cc(C(N)=O)nc3cc(F)c(Cl)cc23)c(C(F)(F)F)nn1Cc1ccc(C#N)cc1F", "note": "[Example 303, 6-chloro-N^4-[1-(4-cyano-2-fluorobenzyl)-5-methyl-3-(trifluoromethyl)-1H-pyrazol-4-yl]-7-fluoroquinoline-2,4-dicarboxamide]", "values": [
      {"measurement": "IC50", "value": 1.8, "unit": "nM"}
    ]},
    {"smiles": "Cc1c(NC(=O)c2cc(C(N)=O)nc3cc(F)c(F)cc23)c(C(F)(F)F)nn1Cc1ccc(C#N)cc1F", "note": "[Example 304, N^4-[1-(4-cyano-2-fluorobenzyl)-5-methyl-3-(trifluoromethyl)-1H-pyrazol-4-yl]-6,7-difluoroquinoline-2,4-dicarboxamide]", "values": [
      {"measurement": "IC50", "value": 3.6, "unit": "nM"}
    ]},
    {"smiles": "Cc1c(NC(=O)c2cc(C(N)=O)nc3ccc(Br)cc23)c(C(F)(F)F)nn1Cc1ccc(C#N)cc1F", "note": "[Example 305, 6-bromo-N^4-[1-(4-cyano-2-fluorobenzyl)-5-methyl-3-(trifluoromethyl)-1H-pyrazol-4-yl]quinoline-2,4-dicarboxamide]", "values": [
      {"measurement": "IC50", "value": 1.4, "unit": "nM"}
    ]},
    {"smiles": "Cc1c(NC(=O)c2cc(C(N)=O)nc3cccc(F)c23)c(C(F)(F)F)nn1Cc1ccc(C#N)cc1F", "note": "[Example 306, N^4-[1-(4-cyano-2-fluorobenzyl)-5-methyl-3-(trifluoromethyl)-1H-pyrazol-4-yl]-5-fluoroquinoline-2,4-dicarboxamide]", "values": [
      {"measurement": "IC50", "value": 4.7, "unit": "nM"}
    ]},
    {"smiles": "Cc1c(NC(=O)c2cc(C(N)=O)nc3cc(F)c(Cl)cc23)c(C#N)nn1Cc1ccc(F)cc1", "note": "[Example 307, 6-chloro-N^4-[3-cyano-1-(4-fluorobenzyl)-5-methyl-1H-pyrazol-4-yl]-7-fluoroquinoline-2,4-dicarboxamide]", "values": [
      {"measurement": "IC50", "value": 5.1, "unit": "nM"}
    ]},
    {"smiles": "Cc1c(NC(=O)c2cc(C(N)=O)nc3ccccc23)c(C#N)nn1Cc1ccc(F)cc1", "note": "[Example 308, N^4-[3-cyano-1-(4-fluorobenzyl)-5-methyl-1H-pyrazol-4-yl]quinoline-2,4-dicarboxamide]", "values": [
      {"measurement": "IC50", "value": 2.7, "unit": "nM"}
    ]},
    {"smiles": "CCc1nn(Cc2ccc(C#N)cc2)c(CC)c1NC(=O)c1cc(C(F)(F)F)nc2ccc(Br)cc12", "note": "[Example 309, 6-bromo-N-[1-(4-cyanobenzyl)-3,5-diethyl-1H-pyrazol-4-yl]-2-(trifluoromethyl)quinoline-4-carboxamide]", "values": [
      {"measurement": "IC50", "value": 363, "unit": "nM"}
    ]},
    {"smiles": "CCc1nn(Cc2ccc(C#N)cc2)c(CC)c1NC(=O)c1cc(C(N)=O)nc2ccccc12", "note": "[Example 310, N^4-[1-(4-cyanobenzyl)-3,5-diethyl-1H-pyrazol-4-yl]quinoline-2,4-dicarboxamide]", "values": [
      {"measurement": "IC50", "value": 47.2, "unit": "nM"}
    ]},
    {"smiles": "CCc1nn(Cc2ccc(C#N)cc2)c(CC)c1NC(=O)c1cc(C(N)=O)nc2cc(F)c(Cl)cc12", "note": "[Example 311, 6-chloro-N^4-[1-(4-cyanobenzyl)-3,5-diethyl-1H-pyrazol-4-yl]-7-fluoroquinoline-2,4-dicarboxamide]", "values": [
      {"measurement": "IC50", "value": 6, "unit": "nM"}
    ]},
    {"smiles": "CCc1nn(Cc2ccc(C#N)cc2)c(CC)c1NC(=O)c1cc(C(N)=O)nc2cc(F)ccc12", "note": "[Example 312, N^4-[1-(4-cyanobenzyl)-3,5-diethyl-1H-pyrazol-4-yl]-7-fluoroquinoline-2,4-dicarboxamide]", "values": [
      {"measurement": "IC50", "value": 35.5, "unit": "nM"}
    ]},
    {"smiles": "CCc1nn(Cc2ccc(C#N)cc2)c(CC)c1NC(=O)c1cc(C(N)=O)nc2cc(Cl)ccc12", "note": "[Example 313, 7-chloro-N^4-[1-(4-cyanobenzyl)-3,5-diethyl-1H-pyrazol-4-yl]quinoline-2,4-dicarboxamide]", "values": [
      {"measurement": "IC50", "value": 185, "unit": "nM"}
    ]},
    {"smiles": "CCc1c(NC(=O)c2cc(C(N)=O)nc3cc(F)c(Cl)cc23)c(C(F)(F)F)nn1Cc1ccc(C#N)cc1", "note": "[Example 314, 6-chloro-N^4-[1-(4-cyanobenzyl)-5-ethyl-3-(trifluoromethyl)-1H-pyrazol-4-yl]-7-fluoroquinoline-2,4-dicarboxamide]", "values": [
      {"measurement": "IC50", "value": 1.6, "unit": "nM"}
    ]},
    {"smiles": "CCc1c(NC(=O)c2cc(C(N)=O)nc3cc(F)ccc23)c(C(F)(F)F)nn1Cc1ccc(C#N)cc1", "note": "[Example 315, N^4-[1-(4-cyanobenzyl)-5-ethyl-3-(trifluoromethyl)-1H-pyrazol-4-yl]-7-fluoroquinoline-2,4-dicarboxamide]", "values": [
      {"measurement": "IC50", "value": 16, "unit": "nM"}
    ]},
    {"smiles": "CCc1c(NC(=O)c2cc(C(N)=O)nc3cccc(F)c23)c(C(F)(F)F)nn1Cc1ccc(C#N)cc1", "note": "[Example 316, N^4-[1-(4-cyanobenzyl)-5-ethyl-3-(trifluoromethyl)-1H-pyrazol-4-yl]-5-fluoroquinoline-2,4-dicarboxamide]", "values": [
      {"measurement": "IC50", "value": 19.8, "unit": "nM"}
    ]}
  ]
}
